The values that follow come from DBAASP.

Test systems include Candida albicans CA1; Escherichia coli 078; Escherichia coli UB1005; Escherichia coli K99; Escherichia coli K88; Escherichia coli 987P; Candida albicans; Cryptococcus neoformans; Aspergillus niger; Penicillium expansum; Micrococcus luteus A270; Escherichia coli SBS 363.
Assay in all cases: ≥ marks a high value that may be exact or a test limit, other limits are often not marked, values filed in µg/mL are converted to µM
In test [1] the test system is Enterococcus faecalis ATCC 51299.
For test [2], the system named is Klebsiella pneumoniae ATCC BAA-2814.
The subject of test [3] is Escherichia coli ATCC 35218.
For test [4], the system named is Klebsiella pneumoniae ATCC 49472.
Test [5] deals with Staphylococcus aureus ATCC BAA-2312.
Test [6] has as its system Enterococcus faecium ATCC 19434.
For test [7], the system named is Staphylococcus aureus ATCC 12600.
Test [8] deals with Pseudomonas aeruginosa ATCC 27853.
Test [9] relates to Salmonella enterica subsp. enterica serovar Typhimurium ATCC 14028.
Test [10] deals with Candida krusei ATCC 40147.
Test [11] deals with Candida tropicalis ATCC 750.
The test system of test [12] is Candida albicans ATCC 90029.
In test [13] the test system is Candida parapsilosis ATCC 90018.
The subject of test [14] is Lacticaseibacillus rhamnosus 7469.
The test system of test [15] is Lactiplantibacillus plantarum 8014.
In test [16] the test system is Lacticaseibacillus rhamnosus 1.0911.
For test [17], the system named is Lacticaseibacillus rhamnosus 1.9205.
Test [18] relates to Lacticaseibacillus rhamnosus 1.0385.
Test [19] relates to Staphylococcus aureus ATCC 25923.
Test [20] deals with Streptococcus agalactiae ATCC 13813.
The test system of test [21] is Staphylococcus aureus ATCC 29213.
Test [22] deals with Salmonella enterica subsp. enterica serovar Typhimurium C77-31.
The test system of test [23] is Lacticaseibacillus rhamnosus 1.0386.
Test [24] deals with Staphylococcus epidermidis ATCC 12228.
In test [25] the test system is Escherichia coli ATCC 25922.
In test [26] the test system is Pseudomonas aeruginosa 919.
Test [27] has as its system Pseudomonas aeruginosa 910.
Test [28] concerns Pseudomonas aeruginosa PAO1.
The subject of test [29] is Pseudomonas aeruginosa 253.
Test [30] has as its system Staphylococcus aureus M838-17.
Test [31] deals with Pseudomonas aeruginosa E411-17.
Test [32] concerns Klebsiella pneumoniae E406-17.
Test [33] relates to Candida albicans ATCC 1023.

What is called MIC is the least concentration at which growth counts as inhibited. A lower MIC goes with inhibition by little substance.

In brackets after ≈: the same amount, converted by molar mass.

Turning to `CC[C@H](C)[C@H](NC(=O)[C@H](CC(=O)O)NC(=O)[C@@H](NC(=O)[C@@H](NC(=O)[C@H](C)NC(=O)CN)C(C)C)C(C)C)C(=O)N[C@@H](CC(C)C)C(=O)N[C@@H](CCCCN)C(=O)NCC(=O)N[C@@H](C)C(=O)NCC(=O)N[C@@H](CCCCN)C(=O)N[C@@H](CC(N)=O)C(=O)N[C@@H](CC(C)C)C(=O)N[C@@H](CC(C)C)C(=O)N[C@@H](CO)C(=O)N[C@@H](CC(C)C)C(=O)N[C@@H](C)C(=O)N[C@@H](CC(C)C)C(=O)N[C@@H](CC(N)=O)C(=O)N[C@@H](CCCCN)C(=O)N[C@@H](CC(C)C)C(=O)N[C@@H](CO)C(=O)N[C@@H](CCC(=O)O)C(=O)N[C@@H](CCCCN)C(=O)N[C@H](C(N)=O)C(C)C` [GAVVDILKGAGKNLLSLALNKLSEKV], the MIC is at least 250 µM in test [1]; at least 125 µM in [2]; at least 62.5 µM in test [3]; at least 125 µM in [4]; at least 250 µM in [5]; at least 250 µM in [6]. For the same molecule, the MIC in test [7] is at least 250 µM; in [8], above 125 µM; in test [9], 250 µM (≈ 663 µg/mL).

Take `CC[C@H](C)[C@H](NC(=O)[C@H](C)NC(=O)[C@H](CCCCN)NC(=O)[C@H](CC(C)C)NC(=O)[C@H](C)NC(=O)[C@H](Cc1c[nH]c2ccccc12)NC(=O)[C@H](CCCCN)NC(=O)[C@H](C)NC(=O)[C@H](CC(C)C)NC(=O)[C@@H](NC(=O)CNC(=O)[C@H](Cc1c[nH]c2ccccc12)NC(=O)[C@@H](N)Cc1ccccc1)[C@@H](C)O)C(=O)N1CCC[C@H]1C(=O)N[C@@H](C)C(=O)N[C@@H](C)C(=O)N[C@@H](CCSC)C(=O)NCC(=O)N[C@@H](CCSC)C(=O)N[C@@H](CCCCN)C(=O)N[C@@H](CCC(N)=O)C(=O)N[C@@H](CC(N)=O)C(=O)N[C@@H](CCCCN)C(=O)O` [FWGTLAKWALKAIPAAMGMKQNK]: the MIC was 5 µM (≈ 12.8 µg/mL) in [10]; 10 µM (≈ 25.6 µg/mL) in test [11]; 10 µM (≈ 25.6 µg/mL) with Candida albicans CA1; 10 µM (≈ 25.6 µg/mL) in test [12]; 10 µM (≈ 25.6 µg/mL) in test [13].

`CC(C)C[C@H](NC(=O)[C@H](CCCN=C(N)N)NC(=O)[C@@H](NC(=O)[C@H](CCCN=C(N)N)NC(=O)[C@@H]1CCCN1C(=O)[C@H](CCCN=C(N)N)NC(=O)[C@H](CCCCN)NC(=O)[C@@H](N)CCC(N)=O)C(C)C)C(=O)N[C@@H](CO)C(=O)N[C@@H](C)C(=O)O` [QKRPRVRLSA]: the MIC (in [14]; in [15]; against Escherichia coli 078; in [16]; in test [17]; in [18]) was at least 128 µM each time. The MIC is above 128 µM in test [19]; at least 128 µM in test [20]; at least 128 µM against Escherichia coli UB1005; above 128 µM in test [21]; at least 128 µM in test [22]; at least 128 µM in test [23]. Besides, the MIC was at least 64 µM in the test with Escherichia coli K99; at least 64 µM in the test on Escherichia coli K88; above 128 µM in test [24]; 64 µM (≈ 77.5 µg/mL) in test [25]; at least 128 µM against Escherichia coli 987P; above 128 µM in test [8].

`CC[C@H](C)[C@H](N)C(=O)N[C@@H](CC(C)C)C(=O)N[C@@H](CCCCN)C(=O)N[C@@H](Cc1c[nH]c2ccccc12)C(=O)N[C@@H](CCCCN)C(=O)N[C@@H](CCCN=C(N)N)C(=O)N[C@@H](CCCCN)C(=O)N[C@@H](Cc1c[nH]c2ccccc12)C(=O)N[C@@H](Cc1c[nH]c2ccccc12)C(=O)N[C@@H](CCCCN)C(=O)N[C@@H](Cc1c[nH]c2ccccc12)C(=O)N[C@@H](Cc1ccccc1)C(=O)N[C@@H](CCCN=C(N)N)C(N)=O` [ILKWKRKWWKWFR]: the MIC is at least 32 µM in [26], 4 µM (≈ 7.84 µg/mL) in test [27], 2 µM (≈ 3.92 µg/mL) in test [28] and 8 µM (≈ 15.7 µg/mL) in [29].

For the molecule `CC(C)C[C@H](NC(=O)[C@H](Cc1c[nH]c2ccccc12)NC(=O)[C@H](Cc1c[nH]c2ccccc12)NC(=O)[C@H](Cc1c[nH]c2ccccc12)NC(=O)[C@H](Cc1c[nH]c2ccccc12)NC(=O)[C@H](CCCN=C(N)N)NC(=O)[C@H](CCCN=C(N)N)NC(=O)[C@@H](N)CCCN=C(N)N)C(N)=O` [RRRWWWWL], the results for the MIC in [30], in [31] and in [32] were 3.1 µM (≈ 4.17 µg/mL), 6.25 µM (≈ 8.4 µg/mL) and 6.25 µM (≈ 8.4 µg/mL), respectively.

With `CC[C@H](C)[C@H](NC(=O)CN)C(=O)N[C@@H](CC(C)C)C(=O)N[C@@H](CC(=O)O)C(=O)N[C@@H](C)C(=O)N[C@H](C(=O)N[C@@H](CCCCN)C(=O)N[C@@H](C)C(=O)N[C@H](C(=O)N[C@@H](C)C(=O)N[C@@H](CCCCN)C(=O)N[C@@H](C)C(=O)N[C@@H](C)C(=O)NCC(N)=O)[C@@H](C)CC)[C@@H](C)CC` [GILDAIKAIAKAAG], the MIC in the test on Candida albicans was 195 µM (≈ 256 µg/mL); in [19], 6.1 µM (≈ 7.99 µg/mL); in test [25] it was 24.4 µM (≈ 32 µg/mL); in test [8] it was 48.8 µM (≈ 64 µg/mL); in [33], at least 195 µM.

Regarding `CSCC[C@H](NC(=O)CNC(=O)[C@H](CC(C)C)NC(=O)[C@H](Cc1ccccc1)NC(=O)CNC(=O)[C@H](CO)NC(=O)[C@@H]1CCCN1C(=O)CN)C(=O)N[C@@H](CCCN=C(N)N)C(=O)O` [GPSGFLGMR], the MIC in the test on Cryptococcus neoformans is at least 128 µM; against Aspergillus niger it was at least 128 µM; in the test with Penicillium expansum, at least 128 µM; in the test on Micrococcus luteus A270, at least 128 µM; against Escherichia coli SBS 363, at least 100 µM; in test [8], 64 µM (≈ 58.9 µg/mL).
